Key:
[1] = system: Human immunodeficiency virus 1; assay: Antiviral activity against NNRTI-resistant HIV-1 RES056 infected in human MT4 cells assessed as virus-induced cytopathicity treated for 5 days by MTT assay; type: functional, organism-based; settings: Human immunodeficiency virus 1, RES056, MT4, 120 h
[2] = system: Human immunodeficiency virus 1; assay: Antiviral activity against HIV-1 harboring L100I mutant infected in human MT4 cells assessed as virus-induced cytopathicity treated for 5 days by MTT assay; type: functional, organism-based; settings: Human immunodeficiency virus 1, MT4, 120 h; read-out: EC50
[3] = system: Human immunodeficiency virus 1; assay: Antiviral activity against HIV-1 harboring Y181C mutant infected in human MT4 cells assessed as virus-induced cytopathicity treated for 5 days by MTT assay; type: functional, organism-based; settings: Human immunodeficiency virus 1, MT4, 120 h; read-out: EC50
[4] = system: Human immunodeficiency virus 1; assay: Antiviral activity against HIV-1 harboring K103N mutant infected in human MT4 cells assessed as virus-induced cytopathicity treated for 5 days by MTT assay; type: functional, organism-based; settings: Human immunodeficiency virus 1, MT4, 120 h; read-out: EC50
[5] = Selectivity index, ratio of CC50 for human MT4 cells to EC50 for NNRTI-resistant HIV-1 RES056 infected in human MT4 cells; type: toxicity, cell-based; settings: read-out: Selectivity Index
[6] = Cytotoxicity against human MT4 cells assessed as reduction in cell viability treated for 5 days by MTT assay; type: toxicity, cell-based; settings: time 5 day
[7] = target: Human immunodeficiency virus type 1 reverse transcriptase (Human immunodeficiency virus 1, UniProt Q72547); assay: Inhibition of wild-type HIV-1 reverse transcriptase assessed as inhibition of biotin-dUTP incorporation
[8] = system: Human immunodeficiency virus 1; assay: Antiviral activity against HIV-1 E138K mutant infected in human MT4 cells assessed as virus-induced cytopathicity treated for 5 days by MTT assay; type: functional, organism-based; settings: Human immunodeficiency virus 1, MT4, 120 h; read-out: EC50
[9] = Selectivity index, ratio of CC50 for human MT4 cells to EC50 for wild-type HIV-1 IIIB infected in human MT4 cells; type: toxicity, cell-based; settings: read-out: Selectivity Index
[10] = system: Human immunodeficiency virus 1; assay: Antiviral activity against wild-type HIV-1 IIIB infected in human MT4 cells assessed as virus-induced cytopathicity treated for 5 days by MTT assay; type: functional, organism-based; settings: Human immunodeficiency virus 1, IIIB, MT4, 120 h
[11] = system: Human immunodeficiency virus 1; assay: Antiviral activity against HIV-1 harboring Y188L mutant infected in human MT4 cells assessed as virus-induced cytopathicity treated for 5 days by MTT assay; type: functional, organism-based; settings: Human immunodeficiency virus 1, MT4, 120 h; read-out: EC50
[12] = system: Human immunodeficiency virus 1; assay: Antiviral activity against HIV-1 F227L/V106A mutant infected in human MT4 cells assessed as virus-induced cytopathicity treated for 5 days by MTT assay; type: functional, organism-based; settings: Human immunodeficiency virus 1, MT4, 120 h; read-out: EC50

SMILES	EC50 [1] [nM]	EC50 [2] [nM]	EC50 [3] [nM]	EC50 [4] [nM]	selectivity ratio [5]	CC50 at 120 h [6] [nM]	IC50 [7] [nM]	EC50 [8] [nM]	selectivity ratio [9]	EC50 [10] [nM]	EC50 [11] [nM]	EC50 [12] [nM]
CC(=O)c1ccc(-c2cnc(NC3CCN(Cc4ccc(S(N)(=O)=O)cc4)CC3)nc2Oc2c(C)cc(/C=C/C#N)cc2C)cc1	40.7	10.8	10.2	5.18	198	8090	130	12	1520	5.34	28.5	22.6
Cc1cc(/C=C/C#N)cc(C)c1Oc1nc(NC2CCN(Cc3ccc(C(N)=O)cc3)CC2)ncc1-c1cccc(O)c1	35.2	11.6	9.7	5.31	1050	36900	88	21.1	8000	4.62	39.3	13.1
Cc1cc(/C=C/C#N)cc(C)c1Oc1nc(NC2CCN(Cc3ccc(S(N)(=O)=O)cc3)CC2)ncc1-c1cccc(N)c1	25.8	7.05	103	6.11	269	6940	134	11.2	1130	6.16	46.5	11.4
Cc1cc(/C=C/C#N)cc(C)c1Oc1nc(NC2CCN(Cc3ccc(S(N)(=O)=O)cc3)CC2)ncc1-c1ccc2c(c1)OCO2	47	10.6	10.7	6.3	136	6400	122	40.5	1170	5.48	47.8	35.7
Cc1cc(/C=C/C#N)cc(C)c1Oc1nc(NC2CCN(Cc3ccc(S(N)(=O)=O)cc3)CC2)ncc1-c1cccc(O)c1	36.1	11.6	16	5.61	215	7850	115	18.5	1240	6.32	33	25

Reference: ChEMBL document CHEMBL5316329, “Structure-Based Optimization of 2,4,5-Trisubstituted Pyrimidines as Potent HIV-1 Non-Nucleoside Reverse Transcriptase Inhibitors: Exploiting the Tolerant Regions of the Non-Nucleoside Reverse Transcriptase Inhibitors' Binding Pocket” (J Med Chem, 2023)
